Converted amounts (≈) assume the structure as drawn. The source made the active and inactive calls. The calls are words filed in the database; no cut-off is given here.
Assays:
[1] = Lipophilicity, logD of compound at pH 7.4; assay type: physicochemical; conditions: buffer
[2] = Inhibition of NLRP3 inflammasome activation mediated pyroptosis in LPS-stimulated human THP-1 cells preincubated for 3 hrs followed by nigericin addition and measured after 1 hrs by resazurin dye based assay; assay type: cell-based
[3] = Inhibition of NLRP3 inflammasome activation in LPS-stimulated human whole blood assessed as reduction in IL-1beta release preincubated for 3 hrs followed by nigericin addition and measured after 1 hrs by Alphalisa method; assay type: tissue-based
[4] = Metabolic stability in rat hepatocytes assessed as intrinsic clearance measured per 10^6 cells at 100 uM incubated upto 60 mins by UPLC-MS/MS analysis; assay type: ADME, cell-based, Hepatocyte; conditions: read-out: CLH
[5] = Metabolic stability in pooled rat liver microsomes assessed as intrinsic clearance at 1 uM measured upto 45 mins in presence of NADPH by UPLC-MS/MS analysis; assay type: ADME, Microsome; conditions: read-out: CLH
[6] = Clearance in male Sprague-Dawley rat at 1 mg/kg, iv measured after 24 hrs by LC-MS analysis; assay type: ADME, organism-based; conditions: in vivo
[7] = AUC (0 to infinity) in male Sprague-Dawley rat at 1 mg/kg, iv measured after 24 hrs by LC-MS analysis; assay type: ADME, organism-based; conditions: in vivo
BCRP [8] = test: Efflux ratio of permeability in MDCK-II-BCRP cells at 5 uM incubated for 2 hrs by LC-MS/MS analysis; assay type: ADME, cell-based, Canis lupus familiaris; conditions: dog
[9] = Metabolic stability in human hepatocytes assessed as intrinsic clearance measured per 10^6 cells at 100 uM incubated upto 60 mins by UPLC-MS/MS analysis; assay type: ADME, cell-based, Hepatocyte; conditions: read-out: CLH
[10] = Protein binding in human plasma assessed as unbound fraction at 5 uM incubated for 4 hrs by UPLC-MS analysis; assay type: ADME, cell-free
MDR1 [11] = test: Efflux ratio of permeability in MDCKII-MDR1 cells at 5 uM incubated for 2 hrs by LC-MS/MS analysis; assay type: ADME, cell-based, Canis lupus familiaris; conditions: dog, MDCK-MDR1
MDR1 [12] = test: Permeability in MDCKII-MDR1 cells at 5 uM incubated for 2 hrs by LC-MS/MS analysis; assay type: ADME, cell-based, Canis lupus familiaris; conditions: dog, MDCK-MDR1, read-out: permeability
[13] = Protein binding in rat plasma assessed as unbound fraction at 5 uM incubated for 4 hrs by UPLC-MS analysis; assay type: ADME, cell-free
[14] = Protein binding in mouse plasma assessed as unbound fraction at 5 uM incubated for 4 hrs by UPLC-MS analysis; assay type: ADME, cell-free
[15] = Volume of distribution at steady state in male Sprague-Dawley rat at 1 mg/kg, iv measured after 24 hrs by LC-MS analysis; assay type: ADME, organism-based; conditions: in vivo, read-out: Vdss
MDR1 [16] = test: Permeability across apical to basolateral side in pig LLC-PK1 cells transfected with MDR1; assay type: ADME, cell-based, Sus scrofa; conditions: read-out: permeability
[17] = Half-life in male Sprague-Dawley rat at 1 mg/kg, iv measured after 24 hrs by LC-MS analysis; assay type: ADME, organism-based; conditions: in vivo
MDR1 [18] = test: Efflux ratio of permeability across apical to basolateral side in pig LLC-PK1 cells transfected with MDR1; assay type: ADME, cell-based, Sus scrofa
BCRP [19] = test: Permeability in MDCK-II-BCRP cells at 5 uM incubated for 2 hrs by LC-MS/MS analysis; assay type: ADME, cell-based, Canis lupus familiaris; conditions: dog, read-out: permeability
[20] = Kinetic solubility of compound; assay type: physicochemical; conditions: read-out: Kinetic_solubility
Mus musculus = test: In vivo inhibition of NLRP3 inflammasome activation in LPS/ATP-induced acute inflammatory mouse model assessed as reduction in IL-1beta release in plasma at 100 mg/kg, po preadministered with compound for 1 hrs followed by LPS stimulation for 2 hrs and measured after 30 mins of ATP addition; assay type: functional, organism-based; conditions: time 3.5 hrs
[21] = Half-life in male Sprague-Dawley rat at 10 mg/kg, po or 1 mg/kg, iv measured after 24 hrs by LC-MS analysis; assay type: ADME, organism-based; conditions: in vivo
[22] = Metabolic stability in pooled human liver microsomes assessed as intrinsic clearance at 1 uM measured upto 45 mins in presence of NADPH by UPLC-MS/MS analysis; assay type: ADME, Microsome; conditions: read-out: CLH
[23] = Metabolic stability in pooled mouse liver microsomes assessed as intrinsic clearance at 1 uM measured upto 45 mins in presence of NADPH by UPLC-MS/MS analysis; assay type: ADME, Microsome; conditions: read-out: CLH
[24] = Oral bioavailability in male Sprague-Dawley rat at 10 mg/kg measured after 24 hrs by LC-MS analysis; assay type: ADME, organism-based; conditions: in vivo
[25] = Metabolic stability in mouse hepatocytes assessed as intrinsic clearance measured per 10^6 cells at 100 uM incubated upto 60 mins by UPLC-MS/MS analysis; assay type: ADME, cell-based, Hepatocyte; conditions: read-out: CLH
[26] = Volume of distribution at steady state in male Sprague-Dawley rat at 10 mg/kg, po or 1 mg/kg, iv measured after 24 hrs by LC-MS analysis; assay type: ADME, organism-based; conditions: in vivo

With CC(C)n1ccc(S(=O)(=O)NC(=O)Nc2c(-c3ccnc(OC4CCN(C)CC4)c3)ccc3c2CCC3)n1 the logD [1] was -0.02, the IC50 [2] was 46 nM and the IC50 [3] was 440 nM.
In the case of COc1cc(-c2cc(F)cc(C(C)C)c2CC(=O)NS(=O)(=O)c2cnn(C3CC3)c2)ccn1, the hepatocyte CLint at 100 µM [4] is reported as under 8 µL/min/1e6 cells, the logD [1] is reported as 0.9 and the microsomal CLint at 1 µM [5] is reported as under 15.4 µL/min/mg. The clearance [6] was 11 mL/min/kg, the AUC(0-inf) [7] was 1510 ng·h/mL and the efflux ratio at 2 h, 5 µM (BCRP [8]) was 38. It also gave a hepatocyte CLint at 100 µM [9] of under 8 µL/min/1e6 cells, a fraction unbound at 4 h, 5 µM [10] of 0.01 and an IC50 [2] of 533 nM. For the same compound, the efflux ratio at 2 h, 5 µM (MDR1 [11]) was 21, the Papp at 2 h, 5 µM (MDR1 [12]) was 8.8 ×10⁻⁶ cm/s and the fraction unbound at 4 h, 5 µM [13] was 0.019. For the same compound, the fraction unbound at 4 h, 5 µM [14] was 0.017, the Vd [15] was 13.3 L/kg and the Papp A→B (MDR1 [16]) was 0.17 ×10⁻⁶ cm/s. For the same compound, the half-life [17] was 16.4 h, the efflux ratio (MDR1 [18]) was 3.6 and the Papp at 2 h, 5 µM (BCRP [19]) was 5.3 ×10⁻⁶ cm/s.
In the case of CC(C)c1cc(F)cc2c1CC(=O)NS(=O)(=O)c1cn(nc1F)C(C)(C)COc1cc-2ccn1, the IC50 [2] is reported as 20 nM and the IC50 [3] is reported as 450 nM.
CC(C)c1cccc2c1CC(=O)NS(=O)(=O)c1cnn(c1)C1(CCCC1)COc1cc-2ccn1 gave an IC50 [2] of 105 nM and an IC50 [3] of 506 nM.
CC(C)c1c(F)ccc2c1CC(=O)NS(=O)(=O)c1cn(nc1F)C(C)(C)COc1cc-2ccn1 gave a hepatocyte CLint at 100 µM [4] of under 10.3 µL/min/1e6 cells, a logD [1] of 1.02 and a microsomal CLint at 1 µM [5] of 3.7 µL/min/mg. For the same compound, the solubility kinetic [20] was 371 µg/mL (≈ 756 µM), the hepatocyte CLint at 100 µM [9] was under 10.3 µL/min/1e6 cells and the fraction unbound at 4 h, 5 µM [10] was 0.023. For the same compound, the IC50 [2] was 13 nM, the inhibition (Mus musculus) was “Active” and the half-life [21] was 0.9 h. The microsomal CLint at 1 µM [22] was under 7.7 µL/min/mg, the fraction unbound at 4 h, 5 µM [13] was 0.003 and the fraction unbound at 4 h, 5 µM [14] was 0.0126. For the same compound, the Papp A→B (MDR1 [16]) was 0.57 ×10⁻⁶ cm/s, the microsomal CLint at 1 µM [23] was 10.2 µL/min/mg and the bioavailability [24] was 36%. The efflux ratio (MDR1 [18]) was 6.4, the IC50 [3] was 225 nM and the hepatocyte CLint at 100 µM [25] was under 10.3 µL/min/1e6 cells. The Vdss [26] was 1.12 L/kg.
Work on O=C1Nc2c(ccc3c2CCC3)-c2ccnc(c2)OCCCCCCn2ccc(n2)S(=O)(=O)N1 yielded an IC50 [2] of 215 nM and an IC50 [3] of 1570 nM.
With CC1(C)COc2cc(ccn2)-c2ccc3c(c2NC(=O)NS(=O)(=O)c2nn1cc2F)CCC3 the IC50 [2] was 17 nM and the IC50 [3] was 168 nM.
Work on COc1cc(-c2ccc3c(c2NC(=O)NS(=O)(=O)c2cnn(C(C)C)c2)CCC3)ccn1 yielded an IC50 [2] of 16 nM, a microsomal CLint at 1 µM [22] of 45 µL/min/mg and an IC50 [3] of 338 nM.
Compound CC(C)c1cccc2c1CC(=O)NS(=O)(=O)c1cnn(n1)C(C)(C)COc1cc-2ccn1 has an IC50 [2] of 1680 nM.
With CC(C)c1cccc2c1CC(=O)NS(=O)(=O)c1cccc(c1)C(C)(C)COc1cc-2ccn1 the IC50 [2] was 1460 nM.
